The text below walks through data of paper PMC6508934, “Structural basis for mammalian nucleotide sugar transport” (eLife, 2019).

For series [1], the target named is T1, mCST (Mus musculus, UniProt Q61420).
T1 sequence (Q61420 1-336): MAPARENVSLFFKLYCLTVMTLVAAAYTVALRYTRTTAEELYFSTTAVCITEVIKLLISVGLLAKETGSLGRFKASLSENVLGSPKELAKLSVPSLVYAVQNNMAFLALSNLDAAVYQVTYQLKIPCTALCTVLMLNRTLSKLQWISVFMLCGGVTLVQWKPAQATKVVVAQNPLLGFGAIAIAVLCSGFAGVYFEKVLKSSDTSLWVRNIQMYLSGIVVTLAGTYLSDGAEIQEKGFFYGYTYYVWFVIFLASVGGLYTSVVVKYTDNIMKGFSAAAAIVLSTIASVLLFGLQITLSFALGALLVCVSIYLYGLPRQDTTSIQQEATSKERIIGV
As to the kind of experiment: Intrinsic tryptophan fluorescence quenching assay.

Series [2] in a line: HPLC analysis of CMP-Sia hydrolysis in aqueous buffer. Type of series: physicochemical. To be noted: AnP-treated CMP-Sia, AnP removed, pH 7.5 buffer, room temperature.
For series [3] the following is noted: no reference given; cited from earlier work.
For the next series, the target named is T2, mCST (W207L) (Mus musculus, UniProt Q61420, W207L).
T2 sequence (Q61420 1-336 W207L): T1 sequence (Q61420 1-336) with W207L
As to the kind of experiment: SPA two-point CMP binding.

In a further series the test system is mCST Trp207 mutants. As to the kind of experiment: Intrinsic tryptophan fluorescence quenching assay. Particulars: W207L and W207F mutants.
The target of series [4] is T3, mCST (W145L) (Mus musculus, UniProt Q61420, W145L).
T3 sequence (Q61420 1-336 W145L): T1 sequence (Q61420 1-336) with W145L
As to the kind of experiment: Intrinsic tryptophan fluorescence quenching assay.

The target of series [5] is T4, mCST (W247L) (Mus musculus, UniProt Q61420, W247L).
T4 sequence (Q61420 1-336 W247L): T1 sequence (Q61420 1-336) with W247L
As to the kind of experiment: Intrinsic tryptophan fluorescence quenching assay.

In another series the target is T5, mCST (W207F) (Mus musculus, UniProt Q61420, W207F).
T5 sequence (Q61420 1-336 W207F): T1 sequence (Q61420 1-336) with W207F
As to the kind of experiment: SPA two-point CMP binding.

In series [6] the target is T6, mCST∆C (Mus musculus, UniProt Q61420).
T6 construct: modifying the full-length construct using site-directed mutagenesis to remove the last 15 residues (322-336); made in house; host or cells: Pichia pastoris
T6 sequence (Q61420 1-321): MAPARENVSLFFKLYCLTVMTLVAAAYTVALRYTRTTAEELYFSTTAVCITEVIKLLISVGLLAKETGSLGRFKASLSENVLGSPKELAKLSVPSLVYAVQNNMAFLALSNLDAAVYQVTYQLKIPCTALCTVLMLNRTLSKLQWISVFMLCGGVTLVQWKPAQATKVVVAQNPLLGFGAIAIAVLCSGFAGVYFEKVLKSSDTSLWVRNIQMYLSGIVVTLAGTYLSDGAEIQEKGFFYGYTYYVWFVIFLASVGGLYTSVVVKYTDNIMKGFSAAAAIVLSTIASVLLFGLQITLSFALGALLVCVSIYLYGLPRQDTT
As to the kind of experiment: Intrinsic tryptophan fluorescence quenching assay. Type of series: binding. To be noted: fit of tryptophan fluorescence quenching, read-out: Kd (Trp-FL).

Series [7] has as its target T7, mCST (W160L) (Mus musculus, UniProt Q61420, W160L).
T7 sequence (Q61420 1-336 W160L): T1 sequence (Q61420 1-336) with W160L
As to the kind of experiment: Intrinsic tryptophan fluorescence quenching assay.

The target in series [8] is T4, mCST (W247L). As to the kind of experiment: SPA two-point CMP binding.
The target in series [9] is T3, mCST (W145L). As to the kind of experiment: SPA two-point CMP binding.
For series [10], the target named is T7, mCST (W160L). As to the kind of experiment: SPA two-point CMP binding.
Series [11] deals with T1, mCST. As to the kind of experiment: Scintillation proximity binding assay (SPA), displacement of 30 nM [3H]CMP. Also on record: Full-length mCST cDNA was synthesized (Bio Basic) and subcloned into the Pichia pastoris expression vector pPICZ; made in house; host or cells: Pichia pastoris. As for the experimental part: Figure 1. Functional properties of mCST. (A) Purified, detergent-solubilized mCST was bound to SPA beads and the indicated compound was titrated against 30 nM [^3H]CMP to determine its affinity. Solid symbols denote titrations done with mCST and the open symbols are for mCST∆C. (B) Time course of 30 µM CMP-Sia uptake for purified mCST reconstituted into lipid vesicles with (black) or without (red) 300 µM CMP inside the vesicles. […] (C) The initial velocity of CMP-Sia uptake for either mCST (solid circles) or mCST∆C (open circles) reconstituted into CMP-filled vesicles is plotted as a function of substrate concentration to determine the Km and Vmax for transport. In all panels, the symbols show the mean ± standard error of the mean (SEM) for n = 2, except for the CMP titrations in (A), and the titration for mCST in (C) where n = 4. Figure 1—figure supplement 1. Description of SLC35 proteins. (A) Diagram of the nucleotide-sugar transporter (NST) transport cycle. Nucleotide sugars are first synthesized in the cytoplasm (or nucleus for CMP-Sia). They are then transported into the Golgi lumen by NSTs (blue box). A large family of glycosyltransferase enzymes transfers the sugar to a glycan acceptor, leaving behind the nucleotide monophosphate (NMP), which is then transported back to the cytoplasm by the NST. (B) A list of proteins in the SLC35 family with a known function and the associated nucleotide sugar(s) that they transport. SLC35B2 and SLC35B3 are listed for completeness even though they transport PAPS, the substrate used in sulfonation reactions inside the Golgi. In mammals, mannose (Man) is only present in the oligosaccharide precursor that is synthesized in the cytoplasm and then transported across the ER membrane, by a family of transporters distinct from NSTs, before being added to nascent polypeptides to form the base for N-linked glycans. […] (C) The structural formulas of the nucleotide phosphate (left) and sugar (right) moieties of nucleotide sugars are shown. The ‘‘~” symbol indicates the bond that links the two moieties. In mammals, two types of sialic acid may be transported into the Golgi: N-acetylneuraminic acid (Neu5Ac) or N-glycolylneuraminic acid (Neu5Gc). The ring atoms for the nucleobases and Neu5Ac and Gal are labeled. [drawing 1] Figure 1—figure supplement 2. Sequence alignment of mCST with other SLC35 and DMT proteins. The two letter prefix for each sequence name indicates the species as follows: mm: Mus musculus; hs: Homo sapiens; sc: Saccharomyces cerevisiae; sn: Starkeya novella; gs: Galdieria sulphuraria. […] The labeled yellow bars under the sequences indicate the extent of each TM. The interfacial alpha helix (IH) connecting TMs 2 and 3 is also indicated. [drawing 2] Figure 1—figure supplement 3.

The target of series [12] is T6, mCST∆C. The series is described as above. Particulars: full SPA titration against 30 nM [3H]CMP. As for the experimental part: Figure 1. Functional properties of mCST. (A) Purified, detergent-solubilized mCST was bound to SPA beads and the indicated compound was titrated against 30 nM [^3H]CMP to determine its affinity. Solid symbols denote titrations done with mCST and the open symbols are for mCST∆C. (B) Time course of 30 µM CMP-Sia uptake for purified mCST reconstituted into lipid vesicles with (black) or without (red) 300 µM CMP inside the vesicles. […] (C) The initial velocity of CMP-Sia uptake for either mCST (solid circles) or mCST∆C (open circles) reconstituted into CMP-filled vesicles is plotted as a function of substrate concentration to determine the Km and Vmax for transport. In all panels, the symbols show the mean ± standard error of the mean (SEM) for n = 2, except for the CMP titrations in (A), and the titration for mCST in (C) where n = 4. Figure 1—figure supplement 1. Description of SLC35 proteins. (A) Diagram of the nucleotide-sugar transporter (NST) transport cycle. Nucleotide sugars are first synthesized in the cytoplasm (or nucleus for CMP-Sia). They are then transported into the Golgi lumen by NSTs (blue box). A large family of glycosyltransferase enzymes transfers the sugar to a glycan acceptor, leaving behind the nucleotide monophosphate (NMP), which is then transported back to the cytoplasm by the NST. (B) A list of proteins in the SLC35 family with a known function and the associated nucleotide sugar(s) that they transport. SLC35B2 and SLC35B3 are listed for completeness even though they transport PAPS, the substrate used in sulfonation reactions inside the Golgi. In mammals, mannose (Man) is only present in the oligosaccharide precursor that is synthesized in the cytoplasm and then transported across the ER membrane, by a family of transporters distinct from NSTs, before being added to nascent polypeptides to form the base for N-linked glycans. […] (C) The structural formulas of the nucleotide phosphate (left) and sugar (right) moieties of nucleotide sugars are shown. The ‘‘~” symbol indicates the bond that links the two moieties. […]

The next series concerns CST. To be noted: cited from earlier work.
The subject of another series is UDP-GlcNAc transporter. Further details: method as in Waldman and Rudnick, 1990. To be noted: monoanionic UMP compared to dianionic UMP; ref Waldman and Rudnick, 1990; cited from earlier work.

Where a chain is given by its changes, count along the chain named. Where “and” joins values, the source holds several entries; their conditions need not be identical. Equal entries are not always repeated.

As for `Nc1ccn([C@@H]2O[C@H](COP(=O)(O)O)[C@@H](O)[C@H]2O)c(=O)n1` [CMP, Cytidine 5'-monophosphate], the Kd on mCST [1] was found to be 2.9 ± 1.1 µM; on mCST (W207L) it was 1.5 ± 0.4 µM; on mCST (W145L) [4], 3.3 ± 1 µM; at mCST (W247L) [5], 7.4 ± 2.6 µM; on mCST (W207F), 3.8 ± 1.5 µM; on mCST∆C [6], 11.1 ± 2.9 µM. The Kd at mCST (W160L) [7] was 11.9 ± 2.4 µM; at mCST (W247L) [8], 2.4 ± 1.5 µM; at mCST (W145L) [9], 0.8 ± 0.3 µM; on mCST (W160L) [10], 1.6 ± 0.4 µM; at mCST [11] (crude estimation from two-point SPA data (30 nM [3H]CMP ± 5 µM unlabeled CMP), mCST, read-out: Kd (SPA 2-point)), 5.5 ± 1.6 µM; at mCST [11] (full SPA titration against 30 nM [3H]CMP, purified detergent-solubilized mCST, read-out: Kd (SPA titration)) it was 6.3 ± 1.2 µM. The molecule further showed a Kd at mCST∆C [12] of 1.8 ± 0.4 µM. Besides, on mCST [1] (wild-type mCST), the “Quenching of intrinsic tryptophan fluorescence on CMP binding (in words)” value was “significantly quenched”. The “Rate of CMP generation from CMP-Sia hydrolysis” value in [2] is 0.0051 ± 0.00014 %/min and 0.0051 %/min. Besides, the “Highest pKa of the phosphate group” value in [3] is 6.3. For the same molecule, in the series on mCST Trp207 mutants, the “Quenching of intrinsic tryptophan fluorescence by CMP (in words)” value is given as “lack of any quenching”. At mCST [11] (CMP versus CMP-Sia, Figure 1A), the “Fold higher affinity of CMP towards mCST than CMP-Sia” value is ~ 100 fold.

As for `Nc1nc2c(ncn2[C@@H]2O[C@H](COP(=O)(O)O)[C@@H](O)[C@H]2O)c(=O)[nH]1` [GMP, Guanosine 5′-monophosphate], the Kd at mCST∆C [12] was 5380 ± 1150 µM.

As for `CC(=O)N[C@H]1[C@H]([C@H](O)[C@H](O)CO)OC(O)(C(=O)O)C[C@@H]1O` (stereo partly drawn) [Sia, sialic acid], in the series on CST (ref Carey et al., 1980, Perez and Hirschberg, 1987), the “Competitive inhibition of CMP-Sia transport (in words)” value is reported as “does not competitively inhibit CMP-Sia transport”. In addition, the “Binding to mCST (in words)” value at mCST [11] (SPA titration, Figure 1A) is given as “does not bind mCST”.

For the molecule `O=c1ccn([C@@H]2O[C@H](COP(=O)(O)O)[C@@H](O)[C@H]2O)c(=O)[nH]1` [UMP, Uridine 5′-monophosphate], the “Substrate quality for UDP-GlcNAc transporter (in words)” value in the series on UDP-GlcNAc transporter is “poor substrate”. Moreover, the “Fold higher Ki for inhibiting CMP-Sia transport (versus CMP)” value with CST (ref Chiaramonte et al., 2001) is recorded as 20 fold. Besides, at mCST∆C [12], the Kd worked out at 1620 ± 1120 µM.
